# Reference: US8106055B2, “Substituted amide compounds” (Gruenenthal GmbH, priority 2007, dated 2012)
# Where two headings read alike, the source gives them in different places.
# How the values were obtained:
# human μ opiate receptor = target: T1, human μ opiate receptor (Homo sapiens, UniProt P35372); assay: Affinity for the human μ opiate receptor ([3H]-naloxone displacement, CHO-K1 receptor membrane preparation, SPA); assay type: binding; settings: test concentration of 1 μM
# T1 construct: purchased PerkinElmer Life Sciences, Zaventem, Belgium RB-HOM; host or cells: CHO-K1 cells (membrane preparation)
# Protocol: Binding data of the compounds on the μ opioid receptor and data on the inhibition of reuptake of serotonin (5-HT) are given in Table 1. The data for the μ receptor were measured at a test concentration of 1 μM, and those for the serotonin reuptake at 10 μM. The values are stated in % inhibition.
# Investigation of the Activity of the Compounds of the Invention Method for Determining the Affinity for the Human μ Opiate Receptor
# The receptor affinity for the human p opiate receptor is determined in a homogeneous set-up in microtitre plates. For this, dilution series of the substances to be tested are incubated with a receptor membrane preparation (15-40 μg of protein/250 μl of incubation batch) of CHO-K1 cells which express the human p opiate receptor (RB-HOM receptor membrane preparation from PerkinElmer Life Sciences, Zaventem, Belgium) in the presence of 1 nmol/l of the radioactive ligand [^3H]-naloxone (NET719, PerkinElmer Life Sciences, Zaventem, Belgium) and 1 mg of WGA-SPA-Beads (wheat germ agglutinin SPA beads from Amersham/Pharmacia, Freiburg, Germany) in a total volume of 250 μl for 90 minutes at room temperature. 50 mmol/l of Tris-HCl supplemented with 0.06% of bovine serum albumin is used as the incubation buffer. 100 μmol/l of naloxone are additionally added for determination of the non-specific binding. After the end of the ninety-minute incubation time, the microtitre plates are centrifuged for 20 minutes at 1,000 g and the radioactivity is measured in a β-counter (Microbeta-Trilux, PerkinElmer Wallac, Freiburg, Germany). The percentage displacement of the radioactive ligand from its binding to the human p opiate receptor is determined at a concentration of the test substances of 1 μmol/l and stated as the percentage inhibition of the specific binding. Starting from the percentage displacement by various concentrations of the test substances, IC50 inhibitory concentrations which cause a 50 percent displacement of the radioactive ligand are calculated. By conversion by means of the Cheng-Prusoff relationship, Ki values for the test substances are obtained.
# [1] = target: T2, human bradykinin 1 receptor (B1R) (Homo sapiens, UniProt P46663); assay: Functional investigation on the human bradykinin 1 receptor (B1R), Ca2+ FLIPR assay in CHO K1 hB1R cells; assay type: cell-based; settings: test substance 10 μM; for B1R Ant. h [10 μM] % Inhibition: B1R antagonism human; for inhibition at 10 µM: CHO-K1, B1R antagonism human, read-out: B1R Ant. h [10 μM] % Inhibition
# T2 construct: expressed in transfected cells; host or cells: CHO K1 cells
# T2 sequence (P46663 1-353): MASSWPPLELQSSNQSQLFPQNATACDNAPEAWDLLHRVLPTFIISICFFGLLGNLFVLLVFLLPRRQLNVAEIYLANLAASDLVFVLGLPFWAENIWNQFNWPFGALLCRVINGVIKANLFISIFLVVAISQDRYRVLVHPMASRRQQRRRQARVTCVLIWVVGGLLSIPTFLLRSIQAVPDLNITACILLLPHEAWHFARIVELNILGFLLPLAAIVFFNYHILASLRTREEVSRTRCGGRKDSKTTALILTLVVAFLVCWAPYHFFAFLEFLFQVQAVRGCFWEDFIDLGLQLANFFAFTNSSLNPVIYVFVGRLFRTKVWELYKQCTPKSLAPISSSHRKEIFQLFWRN
# From the text: (§1) Functional Investigation on the Human Bradykinin 1 Receptor (B1R)
# (§2) The agonistic or antagonistic action of substances can be determined on the bradykinin 1 receptor (B1R) of the human species and rats with the following assay. In accordance with this assay, the Ca^2+ inflow through the channel is quantified with the aid of a Ca^2=-sensitive dyestuff (type Fluo-4, Molecular Probes Europe BV, Leiden, Holland) in a fluorescent imaging plate reader (FLIPR, Molecular Devices, Sunnyvale, USA).
# (§3) Chinese hamster ovary cells (CHO K1 cells) transfected stably with the human B1R gene (hB1R cells) or the B1R gene of the rat (rB1R cells) are used. For functional studies, these cells are plated out on black 96-well plates with a clear base (BD Biosciences, Heidelberg, Germany or Greiner, Frickenhausen, Germany) in a density of 20,000-35,000 cells/well. The cells are left overnight at 37° C. and 5% CO2 in culture medium (hB1R cells: Nutrient Mixture Ham's F12, Gibco Invitrogen GmbH, Karlsruhe, Germany or DMEM, Sigma-Aldrich, Taufkirchen, Germany; rB1R cells: D-MEM/F12, Gibco Invitrogen GmbH, Karlsruhe, Germany) with 10 vol. % of FBS (foetal bovine serum, Gibco Invitrogen GmbH, Karlsruhe, Germany or PAN Biotech GmbH, Aidenbach, Germany).
# (§4) On the following day, the cells are loaded for 60 min at 37° C. with 2.13 μM Fluo-4 (Molecular Probes Europe BV, Leiden, The Netherlands) in HBSS buffer (Hank's buffered saline solution, Gibco Invitrogen GmbH, Karlsruhe, Germany) with 2.5 mM probenecid (Sigma-Aldrich, Taufkirchen, Germany) and 10 mM HEPES (Sigma-Aldrich, Taufkirchen, Germany). The plates are then washed 2× with HBSS buffer, and HBSS buffer which additionally contains 0.1% of BSA (bovine serum albumin; Sigma-Aldrich, Taufkirchen, Germany), 5.6 mM glucose and 0.05% of gelatine (Merck KGaA, Darmstadt, Germany) is added. After a further incubation of 20 minutes at room temperature, the plates are inserted into the FLIPR for the Ca^2+ measurement.
# (§5) Alternatively, the plates are washed with buffer A (15 mM HEPES, 80 mM NaCl, 5 mM KCl, 1.2 mM CaCl2, 0.7 mM MgSO4, 2 g/l glucose, 2.5 mM probenecid), buffer A is added and the plates are loaded with 2.5 μM Fluo-4 and 0.025% of Pluronic F127 (Sigma-Aldrich, Taufkirchen, Germany). Thereafter, the cells are washed 2× with buffer A and incubated for 30 minutes with buffer A, which additionally contains 0.05% of BSA and 0.05% of gelatine, at room temperature and thereafter inserted into the FLIPR for the Ca^2+ measurement.
# (§6) The Ca^2+-dependent fluorescence is measured before and after addition of substances (λex=488 nm, λem=540 nm). Quantification is by measurement of the highest fluorescence intensity (FC, fluorescence counts) over time.
# (§7) The FLIPR protocol consists of 2 additions of substance. Test substances (10 μM) are first pipetted on to the cells and the Ca^2+ inflow is compared with the control (hB1R: Lys-Des-Arg^9-bradykinin >=50 nM; rB1R: Des-Arg^9-bradykinin 10 μM). This gives the information in % activation based on the Ca^2+ signal after addition of Lys-Des-Arg^9-bradykinin (>=50 nM) or Des-Arg^9-bradykinin (10 μM).
# (§8) After incubation for 10-20 minutes, Lys-Des-Arg^9-bradykinin (hB1R) or Des-Arg^9-bradykinin (rB1R) is applied in the concentration of the EC80 and the inflow of Ca^2+ is likewise determined.
# (§9) Antagonists lead to a suppression of the Ca^2+ inflow. % inhibition compared with the maximum achievable inhibition is calculated.
# (§10) To determine the IC50 value, the substances are added in various concentrations. Duplicate or triplicate determinations (n=2 or n=3) are carried out, and these are repeated in at least one further independent experiment (N>=2).
# (§11) Preferably, the compounds have a B1R antagonistic action on the human receptor and/or on the rat receptor. The following data are given by way of example in the following table: (In this, “B1R Ant. h” represents “B1R antagonism human” and “B1R Ant. r” represents “B1R antagonism rat”)
# [2] = target: T3, bradykinin 1 receptor (B1R) of the rat (Rattus norvegicus, UniProt P97583); assay: Functional investigation on the rat bradykinin 1 receptor (B1R), Ca2+ FLIPR assay in CHO K1 rB1R cells; assay type: cell-based; settings: CHO-K1, B1R antagonism rat; test substance 10 μM; Ca2+ FLIPR, CHO K1 rB1R cells; read-out: B1R Ant. r [10 μM] % Inhibition
# T3 construct: expressed in transfected cells; host or cells: CHO K1 cells
# T3 sequence (P97583 1-337): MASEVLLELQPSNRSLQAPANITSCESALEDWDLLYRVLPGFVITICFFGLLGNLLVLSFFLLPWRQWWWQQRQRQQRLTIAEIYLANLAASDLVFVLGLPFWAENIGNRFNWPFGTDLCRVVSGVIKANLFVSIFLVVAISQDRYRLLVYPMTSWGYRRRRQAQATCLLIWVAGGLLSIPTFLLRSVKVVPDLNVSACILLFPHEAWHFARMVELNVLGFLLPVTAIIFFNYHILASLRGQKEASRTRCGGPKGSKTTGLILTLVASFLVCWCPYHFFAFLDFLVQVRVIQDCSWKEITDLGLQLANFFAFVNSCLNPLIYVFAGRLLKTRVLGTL
# From the text: as §1, §2, §3, §4, §5, §6, §7, §8, §9, §10, §11
# T1 sequence (P35372 whole entry): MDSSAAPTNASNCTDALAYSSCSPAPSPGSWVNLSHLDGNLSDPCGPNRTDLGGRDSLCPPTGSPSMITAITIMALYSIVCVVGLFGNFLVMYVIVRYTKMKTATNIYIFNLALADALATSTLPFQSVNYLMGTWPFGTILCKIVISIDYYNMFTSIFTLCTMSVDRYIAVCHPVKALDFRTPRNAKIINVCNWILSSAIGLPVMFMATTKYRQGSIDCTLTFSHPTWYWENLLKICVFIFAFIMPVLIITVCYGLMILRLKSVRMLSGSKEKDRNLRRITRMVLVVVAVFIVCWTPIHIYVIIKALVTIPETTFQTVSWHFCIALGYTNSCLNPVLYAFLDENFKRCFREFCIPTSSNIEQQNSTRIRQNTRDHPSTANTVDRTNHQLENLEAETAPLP
SMILES,"μ (binding on the μ opioid receptor, % inhibition) (human μ opiate receptor) [%]","B1R Ant. h [10 μM] % Inhibition ([1]; Ca2+ FLIPR, CHO K1 hB1R cells) [%]",further results
CN(C)C(c1ccccc1)C1CCC(NC(=O)COC2CCN(S(=O)(=O)c3ccc(Cl)cc3Cl)C2)CC1 (centres unmarked) [Example 596],84,32,–
"CN(C)C(c1ccccc1)C1CCC(NC(=O)CNC(=O)c2nc(-c3cccs3)no2)CC1 (centres unmarked) [Example 764, 3-thiophen-2-yl-[1,2,4]oxadiazole-5-carboxylic acid {[4-(dimethylamino-phenyl-methyl)-cyclohexylcarbamoyl]-methyl}-amide]",–,–,"inhibition at 10 µM [2]: -31%; inhibition at 10 µM ([1]; Ca2+ FLIPR, CHO K1 hB1R cells): 17%"
CN(C)C(c1ccccc1)C1CCC(NC(=O)COCCN(C)S(=O)(=O)c2ccc(F)cc2)CC1 (centres unmarked) [Example 585],41,−10,–
"CN(C)C(CCc1ccccc1)C1CCC(NC(=O)CCNC(=O)c2nc(-c3cccs3)no2)CC1 (centres unmarked) [Example 797, 3-thiophen-2-yl-[1,2,4]oxadiazole-5-carboxylic acid {2-[4-(1-dimethylamino-3-phenyl-propyl)-cyclohexylcarbamoyl]-ethyl}-amide]",–,–,inhibition at 10 µM ([1]; % inhibition compared with the maximum achievable inhibition): 0%
COc1ccc(S(=O)(=O)N(C)CCOCC(=O)NC2CCC(C(c3ccccc3)N(C)C)CC2)cc1OC (centres unmarked) [Example 592],83,1,–
CN(C)C(c1ccccc1)C1CCC(NC(=O)COC2CCN(S(=O)(=O)c3ccccc3)C2)CC1 (centres unmarked) [Example 595],51,15,–
"CN(C)C(CCc1ccccc1)C1CCC(NC(=O)CNC(=O)c2nc(-c3ccc(Cl)cc3Cl)no2)CC1 (centres unmarked) [Example 795, 3-(2,4-dichloro-phenyl)-[1,2,4]oxadiazole-5-carboxylic acid {[4-(1-dimethylamino-3-phenyl-propyl)-cyclohexylcarbamoyl]-methyl}-amide]",–,–,"inhibition at 10 µM ([1]; Ca2+ FLIPR, CHO K1 hB1R cells): 103%"
"COc1ccc(-c2noc(C(=O)NCC(=O)NC3CCC(C(CCc4ccccc4)N(C)C)CC3)n2)cc1OC (centres unmarked) [Example 794, 3-(3,4-dimethoxy-phenyl)-[1,2,4]oxadiazole-5-carboxylic acid {[4-(1-dimethylamino-3-phenyl-propyl)-cyclohexylcarbamoyl]-methyl}-amide]",–,–,"inhibition at 10 µM ([1]; Ca2+ FLIPR, CHO K1 hB1R cells): 1%"
CN(C)C(c1ccccc1)C1CCC(NC(=O)COCCN(C)S(=O)(=O)c2ccc(OC(F)(F)F)cc2)CC1 (centres unmarked) [Example 594],94,20,–
CN(C)C(c1ccccc1)C1CCC(NC(=O)COCCN(C)S(=O)(=O)c2cccc(C(F)(F)F)c2)CC1 (centres unmarked) [Example 593],91,56,–
CC(Oc1ccccc1)C(=O)NC1CCC(C(c2ccc(F)cc2)N(C)C)CC1 (centres unmarked) [Example 516],40,–,–
"Cc1ccc(F)cc1-c1noc(C(=O)NCC(=O)NC2CCC(C(CCc3ccccc3)N(C)C)CC2)n1 (centres unmarked) [Example 796, 3-(5-fluoro-2-methyl-phenyl)-[1,2,4]oxadiazole-5-carboxylic acid {[4-(1-dimethylamino-3-phenyl-propyl)-cyclohexylcarbamoyl]-methyl}-amide]",–,–,"inhibition at 10 µM ([1]; Ca2+ FLIPR, CHO K1 hB1R cells): 94%"
CN(C)C(c1ccccc1)C1CCC(NC(=O)COCCN(C)S(=O)(=O)c2ccccc2)CC1 (centres unmarked) [Example 588],29,6,–
CN(C)C(c1ccccc1)C1CCC(NC(=O)COC2CCN(S(=O)(=O)c3ccc(F)cc3)C2)CC1 (centres unmarked) [Example 591],93,0,–
"Cc1ccc(S(=O)(=O)N2CCC(OCC(=O)NC3CCC(C(c4ccccc4)N(C)C)CC3)C2)cc1 (centres unmarked) [Example 123, N-(4-((dimethylamino)(phenyl)methyl)cyclohexyl)-2-(1-tosylpyrrolidin-3-yloxy)acetamide]",–,–,"inhibition at 1 µM (human μ opiate receptor; read-out: μ (binding on the μ opioid receptor, % inhibition)): 27%; inhibition at 10 µM ([1]; Ca2+ FLIPR, CHO K1 hB1R cells): -6%"
COc1ccc(S(=O)(=O)N(C)CCOCC(=O)NC2CCC(C(c3ccccc3)N(C)C)CC2)cc1 (centres unmarked) [Example 590],75,−1,–
CN(C)C(c1ccccc1)C1CCC(NC(=O)COCCN(C)S(=O)(=O)c2ccc(Cl)cc2)CC1 (centres unmarked) [Example 589],25,28,–
